In ChEMBL document CHEMBL1149205, “Biological evaluation of substituted quinolines” (Bioorg Med Chem Lett, 2004):

Assays:
Leishmania amazonensis = test: In vitro anti protozoal activity against Leishmania amazonensis strain MHOM/ET/L82/LV9 was determined; assay type: functional, organism-based
Homo sapiens = organism: Homo sapiens; test: Cytotoxicity in macrophages; assay type: functional
Trypanosoma brucei = test: In vitro anti protozoal activity against Trypanosoma brucei strain S427 was determined; assay type: functional, organism-based
Trypanosoma cruzi = test: In vitro anti protozoal activity against Trypanosoma cruzi strain Tulahuen CL2 was determined; assay type: functional, organism-based
Leishmania infantum = test: In vitro anti protozoal activity against Leishmania infantum strain MHOM-ET-67/L82 was determined; assay type: functional, organism-based
Plasmodium falciparum [1] = test: In vitro anti-protozoal activity against Plasmodium falciparum Ghana strain; assay type: functional, organism-based
[2] = tested on: Human T-cell leukemia virus type I; test: Inhibitory activity against proliferation of HTLV-1 transformed cell lines (HUT-102) at 10 uM; assay type: functional; conditions: Primate T-lymphotropic virus 1, HuT-102
MRC5 = test: Cytotoxicity in MRC-5 cells; assay type: functional, cell-based; conditions: Homo sapiens
Plasmodium falciparum [3] = test: In vitro anti-protozoal activity against Plasmodium falciparum W2; assay type: functional, organism-based

IC50 (Leishmania amazonensis) [µM] | IC50 (Trypanosoma brucei) [µM] | IC50 (Trypanosoma cruzi) [µM] | IC50 (Leishmania infantum; Leishmania infantum) [µM] | IC50 (Plasmodium falciparum [1]) [µM] | IC50 (Plasmodium falciparum [3]) [µM] | Compound | IC50 (Homo sapiens) [µM] | inhibition at 10 µM [2] [%] | IC50 (MRC5) [µM] | IC50 (Leishmania infantum) [µM]
3.12 | – | – | – | – | – | CCCCCCCCCCCCCCCCOP(=O)([O-])OCC[N+](C)(C)C [MILTEFOSINE] | 12.5 | – | – | –
– | 0.09 | – | – | – | – | Cc1ccc(C(=O)Nc2ccc(S(=O)(=O)O)c3cc(S(=O)(=O)O)cc(S(=O)(=O)O)c23)cc1NC(=O)c1cccc(NC(=O)Nc2cccc(C(=O)Nc3cc(C(=O)Nc4ccc(S(=O)(=O)O)c5cc(S(=O)(=O)O)cc(S(=O)(=O)O)c45)ccc3C)c2)c1 [SURAMIN] | – | – | – | –
18 | > 32 | 17 | 16 | 15 | 17 | O=C(/C=C/c1ccc2ccccc2n1)N1CCCCC1 | > 32 | 0 | > 32 | –
> 32 | 18 | > 32 | > 32 | > 32 | 30 | COc1ccc(/C=C/c2ccc3ccccc3n2)c(OC)c1 | > 32 | 0 | > 32 | –
> 32 | > 32 | 22 | > 32 | > 32 | > 32 | Fc1ccc(/C=C/c2ccc3ccccc3n2)cc1 | > 32 | 26 | > 32 | –
– | – | – | – | – | – | MEGLUMINE ANTIMONATE | – | – | – | 7.15
> 32 | > 32 | > 32 | > 32 | > 32 | > 32 | CN1CCN(C(=O)/C=C/c2ccc3ccccc3n2)CC1 | > 32 | 0 | > 32 | –
> 32 | 26 | > 32 | 22 | > 32 | > 32 | COc1ccc(/C=C/c2ccc3ccccc3n2)cc1OC | > 32 | 0 | > 32 | –
> 32 | > 32 | > 32 | > 32 | > 32 | > 32 | OC(Cc1ccc2ccccc2n1)c1ccco1 (centres undefined) | > 32 | 0 | > 32 | –
> 32 | > 32 | 13 | 18 | 12 | 16 | O=C(/C=C/c1ccc2ccccc2n1)N1CCOCC1 | > 32 | 0 | > 32 | –
> 32 | > 32 | 28 | > 32 | > 32 | > 32 | O=[N+]([O-])c1ccc(/C=C/c2ccc3ccccc3n2)cc1 | > 32 | 0 | > 32 | –
> 32 | > 32 | > 32 | > 32 | > 32 | > 32 | COc1cc(NCc2ccc3ccccc3n2)cc(OC)c1OC | > 32 | 0 | > 32 | –
> 32 | > 32 | > 32 | > 32 | > 32 | > 32 | COc1ccc(C(O)Cc2ccc3ccccc3n2)cc1OC (centres undefined) | > 32 | 0 | > 32 | –
3 | 1 | 0.15 | 2 | > 32 | – | Br/C=C/c1ccc2ccccc2n1 | 13 | – | > 32 | –
16 | 6 | 17 | > 32 | > 32 | > 32 | CN(C)c1ccc(/C=C/c2ccc3ccccc3n2)cc1 | 16 | 26 | > 32 | –
> 32 | > 32 | > 32 | > 32 | > 32 | > 32 | CN(C)c1ccc(C(O)Cc2ccc3ccccc3n2)cc1 (centres undefined) | > 32 | 0 | > 32 | –
– | – | 0.45 | – | – | – | CC1CS(=O)(=O)CCN1/N=C/c1ccc([N+](=O)[O-])o1 (centres undefined) [NIFURTIMOX] | – | – | – | –
> 32 | > 32 | > 32 | > 32 | 15 | 6 | O=[N+]([O-])c1ccc(C(O)Cc2ccc3ccccc3n2)cc1 (centres undefined) | > 32 | 10 | > 32 | –
> 32 | 18 | 1 | > 8 | 16 | 14 | O=[N+]([O-])/C=C/c1ccc2ccccc2n1 | > 32 | 76 | 22 | –
> 32 | > 32 | > 32 | > 32 | > 32 | > 32 | Fc1ccccc1NCc1ccc2ccccc2n1 | > 32 | 0 | > 32 | –
> 32 | > 32 | > 32 | > 32 | 4 | 1 | OC(Cc1ccc2ccccc2n1)c1ccc(F)cc1 (centres undefined) | > 32 | 0 | > 32 | –
4 | 19 | 5 | 2 | 31 | – | O=C/C=C/c1ccc2ccccc2n1 | 9 | 34 | 16 | –
